Measurements: PubChem BioAssay (NCI)
Where “and” joins values, the source holds several entries; their conditions need not be identical. Equal values may be shown once.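 These data come from cells grown in 96-well plates and exposed to compound for 48 hours at five concentrations. GI50 marks 50% less growth. TGI denotes the concentration required for complete inhibition of growth.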

Experiments:
Experiment in all cases: NCI anticancer screen, dose series, 48 h
SK-MEL-5 melanoma = tested on: SK-MEL-5 melanoma
OVCAR-8 ovarian = tested on: OVCAR-8 ovarian
A498 renal = tested on: A498 renal
CCRF-CEM leukemia = tested on: CCRF-CEM leukemia
M14 melanoma = tested on: M14 melanoma
BT-549 breast = tested on: BT-549 breast
SW-620 colon = tested on: SW-620 colon
PC-3 prostate = tested on: PC-3 prostate
CAKI-1 renal = tested on: CAKI-1 renal
NCI/ADR-RES ovarian = tested on: NCI/ADR-RES ovarian

| SMILES | GI50 (SK-MEL-5 melanoma) | TGI (SK-MEL-5 melanoma) | GI50 (OVCAR-8 ovarian) | TGI (OVCAR-8 ovarian) | GI50 (A498 renal) | TGI (A498 renal) | GI50 (CCRF-CEM leukemia) | TGI (CCRF-CEM leukemia) | GI50 (M14 melanoma) | TGI (M14 melanoma) | GI50 (BT-549 breast) | TGI (BT-549 breast) | GI50 (SW-620 colon) | TGI (SW-620 colon) | GI50 (PC-3 prostate) | TGI (PC-3 prostate) | GI50 (CAKI-1 renal) | TGI (CAKI-1 renal) | GI50 (NCI/ADR-RES ovarian) | TGI (NCI/ADR-RES ovarian) |
| --- | --- | --- | --- | --- | --- | --- | --- | --- | --- | --- | --- | --- | --- | --- | --- | --- | --- | --- | --- | --- |
| O=c1[nH]c2ccccc2nc1-c1c[nH]c2ccccc12 | > 100 µM | > 100 µM | > 100 µM | > 100 µM | 7.4 µM | > 100 µM | > 100 µM | > 100 µM | > 100 µM | > 100 µM | > 100 µM | > 100 µM | > 100 µM | > 100 µM | > 100 µM | > 100 µM | 2.49 µM | > 100 µM | > 100 µM | > 100 µM |
| C[C@]12CC[C@H]3[C@@H](CCC4=CC(=O)CC[C@@H]43)[C@@H]1CC[C@@H]2OC(=O)CCc1ccccc1 | 13 µM | 26 µM | 21.5 µM | 49.3 µM | 16.2 µM | 30.8 µM | 17.2 µM | 43.5 µM | 21.2 µM | 46.4 µM | 17.5 µM | 33.9 µM | 20.3 µM | 47.2 µM | 24.4 µM | > 84.2 µM | 12 µM | 26.2 µM | 19.1 µM | 40.9 µM |
| CC1=C(CCC(C)N(C)Cc2ccc(OCCCN3CCCC3)cc2)C(C)(C)CCC1 (configuration not stated) | 1.75 µM | 3.15 µM | 5.75 µM | 19.9 µM | 10.4 µM | 22.7 µM | 2.66 µM | 11.6 µM | 1.75 µM | 3.7 µM | 12.3 µM | 27.1 µM | 3.01 µM | 10.8 µM | 3.28 µM | 14.1 µM | 11.3 µM | 24.3 µM | 10.4 µM | 25 µM |
| O=C(/C(=C/c1ccccc1)CN1CCCCC1)c1ccccc1 | 1.43 µM | 2.94 µM | 0.616 µM | 4.29 µM | 1.63 µM | 3.1 µM | 0.346 µM | > 45.3 µM | 1.23 µM | 2.88 µM | 1.92 µM | 3.85 µM | 0.398 µM | 1.53 µM | 2.2 µM | 9.26 µM | 0.337 µM | 2.84 µM | 1.06 µM | 4.64 µM |
| CCCn1c(C)nc2c1C(=O)c1ccccc1C2=O | 13.4 µM | 27.2 µM | 31.8 µM | > 100 µM | 34.6 µM | > 100 µM | 15.6 µM | > 100 µM | 40 µM | > 100 µM | 31.4 µM | > 100 µM | 33.5 µM | > 100 µM | 11 µM | > 100 µM | 12.2 µM | 42.4 µM | 22.9 µM | > 100 µM |
| COC(=O)C(Cc1ccccc1)NC(=O)NC(=O)NC(=O)CI (configuration not stated) | 15.5 µM | 29 µM | 4.3 µM | 15.9 µM | 18.4 µM | 33.2 µM | 1.14 µM | 3.81 µM | 2.51 µM | 7.45 µM | 10 µM | 21.8 µM | 5.95 µM | 21.7 µM | 17.3 µM | 33.1 µM | 2 µM | 4.08 µM | 19.8 µM | 84.3 µM |
| O=C(c1ccccc1)C(CN1CCOCC1)c1ccccc1 (configuration not stated) | 1.76 µM | 3.77 µM | 1.52 µM | 3.22 µM | 2.49 µM | 11.2 µM | 0.283 µM | 1.19 µM | 1.66 µM | 3.57 µM | 1.48 µM | 3.77 µM | 0.372 µM | 1.28 µM | 2.93 µM | 13.3 µM | 0.565 µM | 1.95 µM | 2.83 µM | 14.1 µM |
| Cc1ccc(C(=O)Nc2ccc(CN3CCN(C)CC3)c(C(F)(F)F)c2)cc1C#Cc1cnc2cccnn12 | 0.79 µM and 2.74 µM | 2.04 µM and 4.66 µM | 0.367 µM and 1.08 µM | 1.46 µM and 3.75 µM | 0.299 µM and 0.47 µM | 1.07 µM and 1.85 µM | 0.618 µM and 1.65 µM | 5.21 µM and 5.63 µM | 0.162 µM and 0.351 µM | 0.737 µM and 3.42 µM | 1.15 µM and 2.57 µM | 2.45 µM and 5.19 µM | 0.283 µM and 0.594 µM | 1.52 µM and 4.12 µM | 1.14 µM and 2.19 µM | 3.2 µM and 5.59 µM | 0.274 µM and 0.388 µM | 1.09 µM and 1.82 µM | 0.387 µM and 1.03 µM | 2.15 µM and 4.54 µM |
| C=CC(=O)N(C)[C@H]1C[C@H]2OC(C)(C1OC)n1c3ccccc3c3c4c(c5c6ccccc6n2c5c31)C(=O)NC4 (some centres not stated) | 0.262 µM | 0.972 µM | 0.217 µM | – | 0.0349 µM | 0.182 µM | 0.0337 µM | 1.35 µM | 0.115 µM | 1.74 µM | 0.0963 µM | 0.553 µM | 0.0514 µM | 0.792 µM | 0.182 µM | 15.2 µM | – | – | 0.182 µM | 3.59 µM |
| N#Cc1c(N/N=C/c2c(Cl)cccc2Cl)nc(N)nc1N1CCOCC1 | 3.71 µM | 24 µM | 60.6 µM | > 100 µM | 2.67 µM | 15.5 µM | 6.27 µM | > 100 µM | 6.79 µM | 38.7 µM | 18 µM | > 100 µM | 6.11 µM | > 100 µM | 3.91 µM | 95.8 µM | 12.1 µM | > 100 µM | 9.98 µM | 64.6 µM |
| CN1CCN(Cc2ccc(NC(=O)c3cncc(C#Cc4cnc(N)c5ccncc45)c3)cc2C(F)(F)F)CC1 | 1.18 µM | 3.93 µM | 1.42 µM | 8.86 µM | 0.279 µM | 1.7 µM | 0.554 µM | 11.6 µM | 0.141 µM | 0.547 µM | 2.22 µM | > 46.6 µM | 0.418 µM | 3.46 µM | 1.77 µM | 9.18 µM | 1.59 µM | > 16.3 µM | 6.74 µM | 16.5 µM |
| COC(=O)Cn1c2c(c3c(O)cccc31)C(=O)c1ccccc1-2 | > 100 µM | > 100 µM | > 100 µM | > 100 µM | > 100 µM | > 100 µM | > 100 µM | > 100 µM | > 100 µM | > 100 µM | > 100 µM | > 100 µM | > 100 µM | > 100 µM | > 100 µM | > 100 µM | > 100 µM | > 100 µM | > 100 µM | > 100 µM |
